In general, AC50 refers to the concentration giving half of the maximal activity seen. For orientation: EC50 means the midpoint of the concentration-response curve.

Data on 9 molecules can be found in ChEMBL document CHEMBL1201862, “PubChem BioAssay data set” (2004).

Experiment [1] has as its target T1, Sentrin-specific protease 8 (Homo sapiens, UniProt Q96LD8).
T1 sequence (Q96LD8 whole entry): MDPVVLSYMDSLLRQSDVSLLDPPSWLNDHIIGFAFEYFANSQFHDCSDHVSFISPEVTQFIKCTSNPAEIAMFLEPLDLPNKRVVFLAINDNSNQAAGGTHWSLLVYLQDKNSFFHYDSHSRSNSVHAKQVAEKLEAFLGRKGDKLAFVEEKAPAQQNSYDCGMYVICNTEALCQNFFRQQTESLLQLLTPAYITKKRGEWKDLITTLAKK
It counts as functional.

In experiment [2] the target is T1, Sentrin-specific protease 8. Type of experiment: functional. This is another data set of the same source.
A further experiment deals with Paired box protein Pax-8 (Homo sapiens, UniProt Q06710). Description: inhibitors of PAX8-driven TPO luciferase reporter, dose response, RMG-I cells, cherry-pick (AID 687027).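 Note: luciferase reporter driven by Pax8 target thyroperoxidase promoter measured by SteadyGlo luminescence.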 It counts as functional, cell-based. For orientation: In a reporter assay the amount or activity of a reporter protein is the signal.
Experiment [3] can be described thus: non-specific cell cytotoxicity, dose response, cytotoxicity control for PAX8 inhibitor project, plate reader, dry powder samples (AID 743021). It counts as functional, cell-based.
Experiment [4] addresses T2, DNA repair protein RAD52 homolog (Homo sapiens, UniProt P43351).
T2 sequence (P43351 whole entry): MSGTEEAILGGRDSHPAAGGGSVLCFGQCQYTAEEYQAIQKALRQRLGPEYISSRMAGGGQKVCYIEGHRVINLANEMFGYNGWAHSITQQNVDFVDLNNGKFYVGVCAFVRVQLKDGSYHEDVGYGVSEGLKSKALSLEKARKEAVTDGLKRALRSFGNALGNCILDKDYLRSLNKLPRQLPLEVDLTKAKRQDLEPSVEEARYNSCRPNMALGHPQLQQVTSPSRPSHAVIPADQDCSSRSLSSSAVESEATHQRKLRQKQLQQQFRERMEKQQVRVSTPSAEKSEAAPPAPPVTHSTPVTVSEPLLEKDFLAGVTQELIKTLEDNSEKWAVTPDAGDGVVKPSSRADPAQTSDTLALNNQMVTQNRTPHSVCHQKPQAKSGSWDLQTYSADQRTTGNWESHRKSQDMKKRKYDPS
It counts as functional, biochemical.

The target in another experiment is Melanocortin receptor 4 (Homo sapiens, UniProt P32245). Type of experiment: functional, cell-based.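 Note: Cell-based assay with luminescence read-out, confirmatory dose-response testing for agonist activity of biased ligands at MC4R; human U2OS cells with tagged receptor and beta-arrestin; potency of agonists that increase receptor coupling to beta-arrestin.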
Experiment [5] addresses T3, Small ubiquitin-related modifier 1 (Homo sapiens, UniProt P63165). Briefly: inhibitors of SUMO1 partner interactions, dose response, biochemical, FRET (AID 624383). Type of experiment: functional. To be noted: read-out: IC50_Mean.
The target in experiment [6] is 72 kDa type IV collagenase (Homo sapiens, UniProt P08253). Description: Dose Response validation of uHTS RPN11 inhibitor hits using a MMP-2 Fluorescence assay. Type of experiment: functional.
Another experiment concerns H9c2. Briefly: cells. Type of experiment: functional, cell-based. The settings on record: Rattus norvegicus, H9c2, Myocardium.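 Note: confirmatory concentration-response retest of ultra-high-throughput screening hits for modulation of myocardial damage; cell death induced by hydrogen peroxide oxidative stress; compound pretreatment for 60 min then peroxide exposure for 2 h; potency is for protecting the cells against peroxide damage rather than for killing them.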
For experiment [7], the target named is T3, Small ubiquitin-related modifier 1. Briefly: inhibitors of SUMO1 peptide binding, dose response, biochemical, fluorescence polarization, uHTS hits (AID 624382). It counts as functional. The settings on record: read-out: IC50_Mean. (In general: Polarisation of emitted light reports the rotation of a fluorescent probe.)
Another experiment addresses Prothrombin (Bos taurus, UniProt P00735). Briefly: thrombin inhibition, dose response, biochemical, fluorescence polarization, uHTS hits (AID 602369). It counts as functional.
The target of experiment [8] is 26S proteasome non-ATPase regulatory subunit 14 (Homo sapiens, UniProt O00487). Description: inhibition of proteasome subunit RPN11 – biochemical, fluorescence polarization, uHTS hits, confirmation (AID 602368). It counts as functional.
The nature of experiment [9]: PAX2 cell-based inhibition, dose response, selectivity assay for PAX8 inhibitor project, plate reader, dry powder samples (AID 743048).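 Note: HEK293 cells carrying a WT1 promoter luciferase reporter driven by expressed Pax2; potency is for inhibition of Pax2 driven reporter signal.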 It counts as functional.
Experiment [10] is described as follows: PAX5 activity inhibitors, dose response, selectivity assay for PAX8 inhibitor project, cell-based, plate reader, dry powder samples (AID 743047).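 Note: HEK293 cells carrying a Pax5 driven CD19 promoter luciferase reporter; potency of inhibitors that lower reporter luminescence.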 Type of experiment: functional.
Experiment [11] can be described thus: cytotoxicity in COV362 ovarian cancer cells, dose response, cytotoxicity control for PAX8 inhibitor project, cell-based, plate reader, dry powder, SA12 (AID 743144). It counts as functional.
Experiment [12] is described as follows: cytotoxicity dependent on PAX8, dose response, cell-based, plate reader, dry powder (AID 743049). It counts as functional.
Experiment [13] can be described thus: cytotoxicity in OV-90 ovarian cancer cells, dose response, PAX8 inhibitor project, cell-based, plate reader, dry powder, SA8 (AID 743149). Type of experiment: functional.
A short description of experiment [14]: CEM21 lymphoblast cell cytotoxicity, dose response, cytotoxicity control for viral fusion inhibitor project, CellTiter-Glo luminescence, cherry-picked (AID 652042).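 Note: potency for signal decrease meaning cytotoxicity.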 Type of experiment: functional, cell-based. In general terms: Cellular ATP, detected with luciferase, serves as a proxy for viable cell number.
Experiment [15] in a line: inhibitors of HIV Env-driven cell fusion, dose response, cherry-pick (AID 652057). It counts as functional, cell-based.
The nature of experiment [16]: off-target signal loss in HeLa-CEM21 co-culture – HeLa F-luc CTL cells, cherry-picked, counter-screen for HIV-1 Env fusion inhibitor project, dose response (AID 652040).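 Note: potency for signal decrease marking cytotoxic or nonspecific inhibition.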 Type of experiment: functional, cell-based.
The nature of experiment [17]: inhibitors of clade B AD8 Env fusion, dose response, cell-based, cherry-pick (AID 652062).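 Note: luciferase signal from cell-cell fusion driven by HIV-1 clade B AD8 Env; potency is for inhibitors of fusion seen as a drop in luminescence.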 Type of experiment: functional.
Experiment [18] in a line: ZM109 Env clade C HIV-1 fusion inhibitors, dose response, HeLa effector, CEM target cells, luciferase, cherry-pick (AID 652058). Type of experiment: functional, cell-based.
Experiment [19] can be described thus: ADAM10 protease inhibitors, dose response, selectivity assay for ADAM17 exosite inhibitor project, biochemical, FRET peptide substrate, recombinant human ADAM10 (AID 743259).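 Note: ADAM10 enzyme cleaving a FRET peptide substrate.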
For experiment [20], the target named is Disintegrin and metalloproteinase domain-containing protein 17 (Homo sapiens, UniProt P78536). Briefly: exosite inhibitors of ADAM17, dose response, biochemical (AID 743260).
A short description of experiment [21]: Concentration-dependent survival of SW480 colon cancer line, luminescence detection with CellTiter-Glo, half-maximal inhibitory concentration (AID 1117338). Type of experiment: functional.
A short description of experiment [22]: SNU-C1 cell viability reduction, dose response, CellTiter-Glo luminescence (AID 1117323). Type of experiment: functional, cell-based.
The nature of experiment [23]: CellTiter-Glo luminescent dose response of DLD-1 viability loss (AID 1117352). It counts as functional.
Experiment [24] in a line: cytotoxicity toward HT-29 cells – cell-based, CellTiter-Glo luminescence, IC50, dose response (AID 1117330). Type of experiment: functional.
The nature of experiment [25]: cytotoxicity toward Colo320 cells – cell-based, CellTiter-Glo luminescence, IC50, dose response (AID 1117334). It counts as functional. The settings on record: COLO 320.
Experiment [26] can be described thus: cytotoxicity toward HCT116 cells – cell-based, CellTiter-Glo luminescence, IC50, dose response (AID 1117332). Type of experiment: functional. The settings on record: HCT-116.
Experiment [27] is described as follows: RKO cell viability reduction, dose response, CellTiter-Glo luminescence (AID 1117322). Type of experiment: functional.

Active and inactive are the calls of the source.

Chain of Paired box protein Pax-8 (Q06710 whole entry): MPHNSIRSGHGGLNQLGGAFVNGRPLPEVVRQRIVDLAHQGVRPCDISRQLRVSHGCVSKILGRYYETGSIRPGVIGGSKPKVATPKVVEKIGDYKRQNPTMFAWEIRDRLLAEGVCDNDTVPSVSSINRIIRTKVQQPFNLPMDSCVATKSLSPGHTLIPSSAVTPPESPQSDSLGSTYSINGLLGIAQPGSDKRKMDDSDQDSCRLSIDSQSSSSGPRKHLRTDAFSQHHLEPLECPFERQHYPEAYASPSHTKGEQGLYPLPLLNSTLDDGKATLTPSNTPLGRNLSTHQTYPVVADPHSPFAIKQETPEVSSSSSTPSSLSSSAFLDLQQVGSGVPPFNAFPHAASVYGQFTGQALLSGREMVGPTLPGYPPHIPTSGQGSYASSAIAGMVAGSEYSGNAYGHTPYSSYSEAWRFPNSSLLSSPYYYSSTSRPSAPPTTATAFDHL
T3 sequence (P63165 whole entry): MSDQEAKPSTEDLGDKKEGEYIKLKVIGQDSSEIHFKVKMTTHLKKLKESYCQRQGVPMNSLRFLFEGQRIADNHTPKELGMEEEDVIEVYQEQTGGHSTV
Chain of Disintegrin and metalloproteinase domain-containing protein 17 (P78536 whole entry, the tested form may be a part): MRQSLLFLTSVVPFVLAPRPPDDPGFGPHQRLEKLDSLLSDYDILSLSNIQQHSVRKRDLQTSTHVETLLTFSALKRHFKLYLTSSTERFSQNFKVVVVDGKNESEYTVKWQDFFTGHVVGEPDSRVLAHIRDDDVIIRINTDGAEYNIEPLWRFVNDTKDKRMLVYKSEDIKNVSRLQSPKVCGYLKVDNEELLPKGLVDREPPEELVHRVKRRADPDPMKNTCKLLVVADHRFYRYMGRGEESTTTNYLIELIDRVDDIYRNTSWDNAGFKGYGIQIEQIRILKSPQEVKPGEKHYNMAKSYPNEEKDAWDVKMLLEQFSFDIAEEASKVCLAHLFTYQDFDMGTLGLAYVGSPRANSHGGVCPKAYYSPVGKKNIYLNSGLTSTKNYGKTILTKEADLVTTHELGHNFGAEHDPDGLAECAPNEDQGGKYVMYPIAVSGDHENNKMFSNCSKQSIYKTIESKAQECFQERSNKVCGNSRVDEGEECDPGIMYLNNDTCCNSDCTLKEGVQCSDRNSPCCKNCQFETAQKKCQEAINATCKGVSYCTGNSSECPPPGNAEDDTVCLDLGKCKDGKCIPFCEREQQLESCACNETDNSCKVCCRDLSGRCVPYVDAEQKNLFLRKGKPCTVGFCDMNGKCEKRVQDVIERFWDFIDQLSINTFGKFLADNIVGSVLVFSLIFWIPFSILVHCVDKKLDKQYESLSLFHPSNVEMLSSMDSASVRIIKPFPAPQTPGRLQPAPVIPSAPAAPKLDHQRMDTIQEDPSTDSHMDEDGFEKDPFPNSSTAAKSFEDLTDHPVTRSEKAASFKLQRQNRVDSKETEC
Chain of Melanocortin receptor 4 (P32245 whole entry): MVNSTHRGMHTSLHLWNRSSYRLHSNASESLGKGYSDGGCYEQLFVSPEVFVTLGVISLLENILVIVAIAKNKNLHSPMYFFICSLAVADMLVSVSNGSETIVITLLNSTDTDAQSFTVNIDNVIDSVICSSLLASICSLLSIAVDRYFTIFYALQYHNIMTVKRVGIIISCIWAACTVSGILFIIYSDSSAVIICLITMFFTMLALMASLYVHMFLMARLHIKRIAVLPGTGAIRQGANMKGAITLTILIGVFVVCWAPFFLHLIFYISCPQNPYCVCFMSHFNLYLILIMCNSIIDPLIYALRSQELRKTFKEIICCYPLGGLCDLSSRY
Chain of 26S proteasome non-ATPase regulatory subunit 14 (O00487 whole entry): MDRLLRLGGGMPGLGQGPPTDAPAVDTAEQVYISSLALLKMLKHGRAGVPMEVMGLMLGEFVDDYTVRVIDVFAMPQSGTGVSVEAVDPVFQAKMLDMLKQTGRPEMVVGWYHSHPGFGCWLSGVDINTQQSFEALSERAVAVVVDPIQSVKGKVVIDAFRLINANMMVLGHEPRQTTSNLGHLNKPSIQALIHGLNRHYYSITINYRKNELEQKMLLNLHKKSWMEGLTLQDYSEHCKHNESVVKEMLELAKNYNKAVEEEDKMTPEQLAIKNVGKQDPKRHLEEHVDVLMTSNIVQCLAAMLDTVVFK
Chain of 72 kDa type IV collagenase (P08253 whole entry): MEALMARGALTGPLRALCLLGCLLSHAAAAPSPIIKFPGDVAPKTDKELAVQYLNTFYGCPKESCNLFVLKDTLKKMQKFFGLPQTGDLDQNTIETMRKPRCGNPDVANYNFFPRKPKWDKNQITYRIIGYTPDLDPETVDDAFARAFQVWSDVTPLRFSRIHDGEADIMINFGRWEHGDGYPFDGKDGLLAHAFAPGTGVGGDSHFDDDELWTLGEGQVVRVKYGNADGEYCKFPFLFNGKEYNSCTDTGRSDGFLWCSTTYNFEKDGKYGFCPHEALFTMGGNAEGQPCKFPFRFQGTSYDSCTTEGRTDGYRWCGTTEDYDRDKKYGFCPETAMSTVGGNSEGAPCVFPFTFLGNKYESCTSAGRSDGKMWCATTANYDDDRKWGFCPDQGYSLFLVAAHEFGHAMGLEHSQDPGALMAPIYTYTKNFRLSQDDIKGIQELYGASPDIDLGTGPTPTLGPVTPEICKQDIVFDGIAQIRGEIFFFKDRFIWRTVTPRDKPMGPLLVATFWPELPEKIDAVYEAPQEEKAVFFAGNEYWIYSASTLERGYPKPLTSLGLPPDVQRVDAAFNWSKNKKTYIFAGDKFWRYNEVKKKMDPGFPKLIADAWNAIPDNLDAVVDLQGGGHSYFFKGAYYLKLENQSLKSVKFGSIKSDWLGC

Regarding `CC(=O)Nc1ccc(NC(=O)COC(=O)c2ccc([N+](=O)[O-])o2)cc1`, the results for the IC50 in experiment [1] and in experiment [2] were 7.03 µM (active) and 11.8 µM (active), respectively.

In the case of `CN(C)CCNC(=O)c1cccc(-c2cnc3c(NC=O)cc(-c4cccc(C(F)(F)F)c4)cn23)c1`, the AC50 at Paired box protein Pax-8 is 9.07 µM (active); in experiment [3] it was 54.8 µM (active); in [4], 2.4 µM (active). Besides, the EC50 on Melanocortin receptor 4 was > 89.2 µM (inactive).

`COc1cc(/C=N/NC(=O)c2cccnc2)ccc1OCC(=O)Nc1ccccc1Cl`: the IC50 in [5] is 100 µM (inactive); in experiment [6] it was > 100 µM (inactive); in the experiment with H9c2, > 79 µM (inactive); in [7], > 66.6 µM (inactive); at Prothrombin, > 100 µM (inactive); in experiment [8] it was 47 µM (active).

As to `COc1cccc(C#Cc2ccc([C@H]3[C@@H](C#N)N(C(=O)c4ccccn4)[C@@H]3CO)cc2)c1`, the AC50 in experiment [9] is 14.1 µM (active); in [10], 15.2 µM (active); at Paired box protein Pax-8, 15 µM (active); in experiment [11], 43.7 µM (active); in experiment [12], 47.3 µM (active); in [13], > 70 µM (inactive).

With `COC(=O)[C@]12C[C@H](CC(=O)NCc3ccc(C)o3)C(=O)N(CCC3=CCCCC3)C1=C[C@H](C(C)(C)C)O[C@@H]2C`, the AC50 in [14] is 20.3 µM (active); in experiment [15], 1.28 µM (active); in experiment [16], 1.71 µM (active); in [17], 2.73 µM (active); in experiment [18], < 260 nM (active).

`CCOC(=O)N1CCN(C(=O)C[C@H]2C[C@@]3(C(=O)OC)C(=C[C@H](C(C)C)O[C@@H]3C3CC3)N(Cc3ccc(Cl)cc3Cl)C2=O)CC1`: the IC50 in experiment [19] is 16.4 µM (inactive); in experiment [20] it was > 69.5 µM (inactive).

As for `C[C@@H]1CCCCO[C@H](CN(C)C)[C@H](C)CN([C@@H](C)CO)C(=O)c2cc(NS(=O)(=O)c3ccc(Cl)cc3)ccc2O1`, the AC50 in experiment [3] was 1.71 µM (active).

As for `CCc1ccc(NC(=O)CO/N=C(\C)c2cc3ccccc3o2)cc1`, the IC50 in experiment [19] and in experiment [20] was > 69.5 µM (inactive) in each case.

`CC(C)=CC1C(C(=O)OCN2C(=O)C3=C(CCCC3)C2=O)C1(C)C` (stereo not given) [TETRAMETHRIN]: the IC50 in [21], in experiment [22], in experiment [23], in [24], in [25] and in experiment [26] was > 20 µM (inactive) each time. In experiment [27], the IC50 is > 20 µM (inactive).
